Source: US20120270929A1, “MODULATION OF TTC39 EXPRESSION TO INCREASE HDL” (ISIS Pharmaceuticals, Inc., priority 2009, published 2012)
Oligonucleotides are written 5' to 3', each unit as a sugar letter and its base; * is a phosphorothioate linkage, no mark a phosphodiester; rarer units and linkages stand in square brackets, end groups in braces. Plain capitals give the bases only. e = 2'-O-(2-methoxyethyl) (MOE); [5mC] = 5-methylcytosine; d = 2'-deoxy (DNA)

What was measured:
[1] = system: LDLR mRNA; experiment: LDLR mRNA levels in C57BL/6 mice; assay type: in vivo, mouse; details: 50 mg/kg/week, 6 weeks, compared to PBS control
Protocol: (§1) Four groups of five mice each were injected twice a week with 25 mg/kg (totaling 50 mg/kg/week) of ISIS 447114, ISIS 447118, ISIS 447143, or ISIS 447144 for 6 weeks. A control group of five mice was injected with phosphate buffered saline (PBS) twice a week for 6 weeks. Plasma samples were obtained before the start of treatment, at week 3 and at week 6. At the end of the treatment period, mice were fasted for 4 hours before being euthanized. Plasma and tissue samples were obtained for further analysis.
(§2) The effect of inhibition of TTC39B in mice on cholesterol homeostasis was studied. PCSK9 mRNA levels were measured using the murine primer probe set mPCSK9 (forward sequence ACCGACTTCAACAGCGTGC, designated herein as SEQ ID NO: 106; reverse sequence GGCTGTCACACTTGCTCGC, designated herein as SEQ ID NO: 107, probe sequence AGGATGGGACACGCTTCCACAGACAX, wherein X is a fluorophore, designated herein as SEQ ID NO: 108). LDLR mRNA levels were measured using the murine primer probe set mLDLR (forward sequence GACCGCAGCGAGTACACCA, designated herein as SEQ ID NO: 109; reverse sequence TCACCTCCGTGTCGAGAGC, designated herein as SEQ ID NO: 110, probe sequence […], designated herein as SEQ ID NO: 111). The results are presented as percentage inhibition compared to the PBS control.

[2] = Plasma cholesterol and triglycerides in C57BL/6 mice (Olympus AU400e); assay type: in vivo, mouse
Protocol: as §1
To investigate the effect of inhibition of TTC39B on triglycerides and cholesterol levels in the plasma, samples were collected on weeks 0, 3, and 6, and total plasma cholesterol, LDL cholesterol, HDL cholesterol, and triglycerides were analyzed on an Olympus AU400e Analyzer.

[3] = system: PCSK9 mRNA; experiment: PCSK9 mRNA levels in C57BL/6 mice; assay type: in vivo, mouse; details: 50 mg/kg/week, 6 weeks, compared to PBS control
Protocol: as §1, §2

[4] = system: APOA1 plasma protein; experiment: APOA1 plasma protein levels in C57BL/6 mice; assay type: in vivo, mouse; set-up: APOA1 plasma protein levels: unit not given here
Protocol: as §1

[5] = Body and organ weights in C57BL/6 mice; assay type: in vivo, mouse
Protocol: as §1
Body weights of all the mice were measured weekly till the end of the treatment period. Organ weights were taken at the end of the treatment period when the mice were euthanized.

[6] = Plasma NEFA and 3-HB in C57BL/6 mice; assay type: in vivo, mouse; set-up: 3-HB levels: unit not given here
Protocol: as §1
Effect of antisense inhibition of TTC39B on free fatty acid levels Plasma levels of non-esterified fatty acids (NEFA) and 3-hydroxybutyric acid (3-HB), which are the end-products of fatty acid oxidation, were measured using an automated clinical chemistry analyzer (Olympus Clinical Analyzer).

[7] = Plasma glucose in C57BL/6 mice (glucose oxidase assay); assay type: in vivo, mouse
Protocol: as §1
Plasma glucose values were determined using a Beckman Glucose Analyzer II (Beckman Coulter) by a glucose oxidase assay. As presented in Table 14, there was no significant change in glucose levels after treatment with ISIS oligonucleotides.

[8] = system: murine TTC39B mRNA; experiment: In vivo antisense inhibition of murine TTC39B mRNA in liver of C57BL/6 mice; set-up: species or system mouse; details: 50 mg/kg/week, 6 weeks, relative to PBS control
Protocol: as §1
RNA was extracted from liver tissue for real-time PCR analysis of TTC39B using murine primer probe set mTtc39b_LTS00287. […] Results are presented as an average of the percent inhibition of TTC39B, relative to control.

[9] = system: SRB1 mRNA; experiment: SRB1 mRNA levels in C57BL/6 mice after TTC39B inhibition; assay type: in vivo, mouse; details: 50 mg/kg/week, 6 weeks
Protocol: as §1
The effect of inhibition of TTC39B in mice on these proteins of reverse cholesterol transport was studied. RNA levels of ABCA1 were measured using murine primer probe set RTS1204 (forward sequence […], designated herein as SEQ ID NO: 97; reverse sequence […], designated herein as SEQ ID NO: 98; and probe sequence […], designated herein as SEQ ID NO: 99). RNA levels of apoA1 were measured using murine primer probe set RTS14737 (forward sequence […], designated herein as SEQ ID NO: 100; reverse sequence […], designated herein as SEQ ID NO: 101; and probe sequence […], designated herein as SEQ ID NO: 102). RNA levels of SRB1 were measured using murine primer probe set mSRB-1 (forward sequence […], designated herein as SEQ ID NO: 103; reverse sequence ATGCGACTTGTCAGGCTGG, designated herein as SEQ ID NO: 104; and probe sequence […], designated herein as SEQ ID NO: 105).

[10] = Week 0 (before treatment), 50 mg/kg/week

In the case of “TATTTCTATAGCTCATGACA (antisense eT*eA*eT*eT*eT*d[5mC]*dT*dA*dT*dA*dG*d[5mC]*dT*d[5mC]*dA*eT*eG*eA*e[5mC]*eA) [ISIS 447144]”, the “Percent inhibition LDLR mRNA levels” value [1] is reported as 2%, the “total cholesterol % increase over baseline” value ([2]; 50 mg/kg/week, 6 weeks, baseline average of 72 mg/dL) is reported as “+37%” and the HDL cholesterol levels [2, 10] is reported as 46 mg/dL. It also gave an LDL cholesterol levels [2, 10] of 14 mg/dL, a total cholesterol levels [2, 10] of 75 mg/dL and a triglyceride levels [2, 10] of 78 mg/dL. For the same sequence, the HDL cholesterol levels ([2]; Week 3, 50 mg/kg/week) was 53 mg/dL, the “HDL cholesterol levels (% change over baseline)” value ([2]; Week 3, 50 mg/kg/week) was “+14%” and the LDL cholesterol levels ([2]; Week 3, 50 mg/kg/week) was 14 mg/dL. For the same sequence, the total cholesterol levels ([2]; Week 3, 50 mg/kg/week) was 81 mg/dL, the triglyceride levels ([2]; Week 3, 50 mg/kg/week) was 70 mg/dL and the HDL cholesterol levels ([2]; Week 6, 50 mg/kg/week) was 90 mg/dL. The “HDL cholesterol levels (% change over baseline)” value ([2]; Week 6, 50 mg/kg/week) was “+88%”, the LDL cholesterol levels ([2]; Week 6, 50 mg/kg/week) was 18 mg/dL and the total cholesterol levels ([2]; Week 6, 50 mg/kg/week) was 107 mg/dL. The triglyceride levels ([2]; Week 6, 50 mg/kg/week) was 91 mg/dL, the “Percent inhibition PCSK9 mRNA levels” value [3] was 19% and the “APOA1 plasma protein % change over the baseline” value ([4]; 50 mg/kg/week, 6 weeks) was “+108%”. The “APOA1 plasma protein levels” value [4, 10] was “+10”, the “APOA1 plasma protein levels” value ([4]; Week 3, 50 mg/kg/week) was “+14” and the “APOA1 plasma protein levels” value ([4]; Week 6, 50 mg/kg/week) was “+20”. The “Kidney weight after treatment” value ([5]; 50 mg/kg/week, 6 weeks) was 0.34 g, the “Liver weight after treatment” value ([5]; 50 mg/kg/week, 6 weeks) was 1.3 g and the “Spleen weight after treatment” value ([5]; 50 mg/kg/week, 6 weeks) was 0.08 g. The body weight ([5]; Week 3, 50 mg/kg/week) was 26 g, the body weight ([5]; Week 6, 50 mg/kg/week) was 28 g and the body weight ([5]; week 1, 50 mg/kg/week) was 25 g. The body weight ([5]; week 2, 50 mg/kg/week) was 26 g, the body weight ([5]; week 4, 50 mg/kg/week) was 27 g and the body weight ([5]; week 5, 50 mg/kg/week) was 27 g. The “3-HB % change over the baseline” value ([6]; 50 mg/kg/week, 6 weeks) was “+152%”, the “NEFA % change over the baseline” value ([6]; 50 mg/kg/week, 6 weeks) was “+101%” and the 3-HB levels [6, 10] was 124. For the same sequence, the NEFA levels [6, 10] was 0.57 mEq/L, the 3-HB levels ([6]; Week 3, 50 mg/kg/week) was 122 and the NEFA levels ([6]; Week 3, 50 mg/kg/week) was 0.63 mEq/L. The 3-HB levels ([6]; Week 6, 50 mg/kg/week) was 398, the NEFA levels ([6]; Week 6, 50 mg/kg/week) was 1.25 mEq/L and the glucose levels [7, 10] was 222 mg/dL. The glucose levels ([7]; Week 3, 50 mg/kg/week) was 239 mg/dL, the glucose levels ([7]; Week 6, 50 mg/kg/week) was 235 mg/dL and the “% inhibition of TTC39B mRNA in liver” value [8] was 70%. For the same sequence, the “srb1 mRNA levels (effect of TTC39B inhibition)” value [9] was 0.
